test system: γ-secretase; test: Cellular γ-secretase assay (inhibition of Aβ42 secretion); type: cell-based; settings: human neuroglioma H4 cells overexpressing human APP, 22 hrs incubation
Procedure, shortened: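 H4 neuroglioma cells overexpressing human APP got a ten-point compound dilution (0.4% DMSO final) for 22 h at 37 °C. Secreted Aβ42 in the supernatant was measured by electrochemiluminescence sandwich immunoassay (capture biotinylated 6E10, detection ruthenylated BAP15). IC50 came from a nonlinear regression fit.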

| EC50 [µM] | SMILES |
| --- | --- |
| 0.032 | COc1cc(Nc2nc3c(-c4ccc(F)c(F)c4)cc(F)cn3n2)ccc1-n1cnc(C)c1 [Example 85, 8-(3,4-Difluorophenyl)-6-fluoro-N-(3-methoxy-4-(4-methyl-1H-imidazol-1-yl)phenyl)-[1,2,4]triazolo[1,5-a]pyridin-2-amine] |
| 0.143 | COc1cc(Nc2nc3c(-c4ccc(F)cc4Cl)cc(F)cn3n2)ccc1-n1cnc(C)c1 [Example 86, 8-(2-Chloro-4-fluorophenyl)-6-fluoro-N-(3-methoxy-4-(4-methyl-1H-imidazol-1-yl)phenyl)-[1,2,4]triazolo[1,5-a]pyridin-2-amine] |
| 0.044 | COc1cc(Nc2nc3c(-c4ccc5nc(C)oc5c4)cc(C)cn3n2)ccc1-n1cnc(C)c1 [Example 87, N-(3-Methoxy-4-(4-methyl-1H-imidazol-1-yl)phenyl)-6-methyl-8-(2-methylbenzo[d]oxazol-6-yl)-[1,2,4]triazolo[1,5-a]pyridin-2-amine] |
| 0.188 | COc1cc(Nc2nc3c(-c4ccc5ncn(C)c5c4)cc(C)cn3n2)ccc1-n1cnc(C)c1 [Example 88, N-(3-Methoxy-4-(4-methyl-1H-imidazol-1-yl)phenyl)-6-methyl-8-(1-methyl-1H-benzo[d]imidazol-6-yl)-[1,2,4]triazolo[1,5-a]pyridin-2-amine] |
| 0.29 | COc1cc(Nc2nc3c(-c4ccc5c(c4)OCCN5C)cc(C)cn3n2)ccc1-n1cnc(C)c1 [Example 89, N-(3-Methoxy-4-(4-methyl-1H-imidazol-1-yl)phenyl)-6-methyl-8-(4-methyl-3,4-dihydro-2H-benzo[b][1,4]oxazin-7-yl)-[1,2,4]triazolo[1,5-a]pyridin-2-amine] |

The next lines start with the compound.

| SMILES | EC50 [µM] |
| --- | --- |
| COc1cc(Nc2nc3c(-c4ccc(F)c(C#N)c4)cc(C)cn3n2)ccc1-n1cnc(C)c1 [Example 78, 2-Fluoro-5-(2-(3-methoxy-4-(4-methyl-1H-imidazol-1-yl)phenylamino)-6-methyl-[1,2,4]triazolo[1,5-a]pyridin-8-yl)benzonitrile] | 0.027 |
| COc1cc(Nc2nc3nc(C(F)(F)F)cc(-c4ccc(F)c(Cl)c4)n3n2)ccc1-n1cnc(C)c1 [Example 79, 7-(3-Chloro-4-fluorophenyl)-N-(3-methoxy-4-(4-methyl-1H-imidazol-1-yl)phenyl)-5-(trifluoromethyl)-[1,2,4]triazolo[1,5-a]pyrimidin-2-amine acetate] | 0.073 |
| COc1cc(Nc2nc3c(-c4ccc(F)c(F)c4)cc(C(F)(F)F)cn3n2)ccc1-n1cnc(C)c1 [Example 80, 8-(3,4-Difluorophenyl)-N-(3-methoxy-4-(4-methyl-1H-imidazol-1-yl)phenyl)-6-(trifluoromethyl)-[1,2,4]triazolo[1,5-a]pyridin-2-amine] | 0.121 |
| COc1cc(Nc2nc3c(-c4ccc(F)c(F)c4)cc(Cl)cn3n2)ccc1-n1cnc(C)c1 [Example 81, 6-Chloro-8-(3,4-difluorophenyl)-N-(3-methoxy-4-(4-methyl-1H-imidazol-1-yl)phenyl)-[1,2,4]triazolo[1,5-a]pyridin-2-amine] | 0.022 |
| COc1cc(Nc2nc3c(-c4ccc(N5CCOCC5)cc4)cc(C)cn3n2)ccc1-n1cnc(C)c1 [Example 82, N-(3-Methoxy-4-(4-methyl-1H-imidazol-1-yl)phenyl)-6-methyl-8-(4-morpholinophenyl)-[1,2,4]triazolo[1,5-a]pyridin-2-amine] | 0.242 |
| COc1cc(Nc2nc3c(-c4ccc(CC#N)cc4)cc(C)cn3n2)ccc1-n1cnc(C)c1 [Example 83, 2-(4-(2-(3-Methoxy-4-(4-methyl-1H-imidazol-1-yl)phenylamino)-6-methyl-[1,2,4]triazolo[1,5-a]pyridin-8-yl)phenyl)acetonitrile] | 0.408 |
| COc1ccc(-c2cc(C)cn3nc(Nc4ccc(-n5cnc(C)c5)c(OC)c4)nc23)c(OC)c1 [Example 84, 8-(2,4-Dimethoxyphenyl)-N-(3-methoxy-4-(4-methyl-1H-imidazol-1-yl)phenyl)-6-methyl-[1,2,4]triazolo[1,5-a]pyridin-2-amine] | 0.321 |

Reference: US20110190269A1, “GAMMA SECRETASE MODULATORS” (priority 2010, published 2011)
